{
  "source": "patent US20170114060A1",
  "about": "(priority 2014, published 2017)",
  "key": {"[1]": {"system": "HEK293T cells"}, "[2]": {"system": "HEK293T cells", "remark": "listed apart in the source"}, "[3]": {"system": "HIV-1", "format": "cell-based"}, "[4]": {"system": "MDCK cells"}, "[5]": {"system": "Influenza Virus A", "format": "cell-based"}, "[6]": {"system": "Ebola VP40 (eVP40) VLPs", "format": "cell-based"}, "[7]": {"target": "CRAC/Orai1 channels (Homo sapiens, UniProt Q96D31)", "sequence (Q96D31 whole entry)": "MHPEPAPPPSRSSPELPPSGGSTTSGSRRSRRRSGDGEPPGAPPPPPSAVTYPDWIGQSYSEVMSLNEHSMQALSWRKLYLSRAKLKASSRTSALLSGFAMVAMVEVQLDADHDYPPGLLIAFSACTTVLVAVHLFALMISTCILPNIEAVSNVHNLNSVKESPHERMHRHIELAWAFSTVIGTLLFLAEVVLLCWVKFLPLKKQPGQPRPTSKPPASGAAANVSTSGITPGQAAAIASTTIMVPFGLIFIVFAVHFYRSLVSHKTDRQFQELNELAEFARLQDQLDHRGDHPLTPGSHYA", "format": "cell-based"}, "[8]": {"system": "Ebola VP40 induced intracellular calcium increase", "format": "cell-based"}, "[9]": {"system": "Junin virus (Candid-1 strain)", "format": "cell-based"}, "[10]": {"system": "vesicular stomatitis virus (VSV)", "format": "cell-based"}, "[11]": {"system": "VeroE6 cells"}, "[12]": {"system": "VP40-APT/PY VLP budding", "format": "cell-based"}, "[13]": {"system": "Marburg VP40 (mVP40) VLPs", "format": "cell-based"}, "[14]": {"system": "JUNV", "format": "cell-based, Junin virus"}, "[15]": {"system": "MARV", "format": "cell-based, Marburg virus"}, "[16]": {"system": "eVP40 GFP expressed in HEK cells", "format": "cell-based"}, "[17]": {"system": "LASV", "format": "cell-based, Lassa fever virus"}, "[18]": {"system": "EBOV", "format": "cell-based, Ebola virus"}, "[19]": {"system": "retrovirus", "details": "cited from earlier work"}},
  "note": "Entries after “also recorded” stand apart in the source; their conditions may differ.",
  "data": [
    {"smiles": "Cc1c(CC(C(=O)O)c2ccccc2)nn(-c2ccccc2)c1-c1ccccc1", "note": "(stereo not drawn) [FC-2122, 3-(4-methyl-1,5-diphenyl-1H-pyrazol-3-yl)-2-phenylpropanoic acid]", "values": [
      {"measurement": "cytotoxicity", "setting": "[1]", "result": "not cytotoxic"},
      {"measurement": "cell viability / cytotoxicity (MTT)", "setting": "[2]", "result": "without cell toxicity"},
      {"measurement": "inhibition of budding of live HIV-1", "setting": "[3]", "result": "did not inhibit budding of live HIV-1"},
      {"measurement": "cytotoxicity", "setting": "[4]", "result": "not cytotoxic"},
      {"measurement": "reduction of live Influenza Virus A budding", "setting": "[5]", "result": "reduce live Influenza Virus A budding"},
      {"measurement": "cellular eVP40 expression", "setting": "[6]", "result": "not different from mock treated cells"},
      {"measurement": "concentrations at which VP40 expression inhibited", "setting": "[6]", "result": "above 10 μM"},
      {"measurement": "inhibition of eVP40 VLP formation", "setting": "[6]", "result": "a corresponding inhibition of VLP formation; also recorded: decreased to a comparable extent as by 2-APB; also recorded: inhibits; also recorded: successful inhibition of Ebola VP40 VLP production"},
      {"measurement": "inhibition of store-operated Ca2+ entry via CRAC/Orai channels", "setting": "[7]", "result": "partial dose-dependent inhibition of Tg-induced calcium entry; also recorded: inhibits Orai-mediated calcium entry; also recorded: can block calcium influx into cells via Orai"}
    ]},
    {"smiles": "c1ccc(C(c2ccccc2)c2noc(C3CCNCC3)n2)cc1", "note": "[FC-2121]", "values": [
      {"measurement": "cytotoxicity", "setting": "[1]", "result": "not cytotoxic"},
      {"measurement": "cell viability / cytotoxicity (MTT)", "setting": "[2]", "result": "without cell toxicity"},
      {"measurement": "cytotoxicity", "setting": "[4]", "result": "not cytotoxic"},
      {"measurement": "reduction of live Influenza Virus A budding", "setting": "[5]", "result": "reduce live Influenza Virus A budding"},
      {"measurement": "inhibition of eVP40 VLP formation", "setting": "[6]", "result": "a corresponding inhibition of VLP formation; also recorded: successful inhibition of Ebola VP40 VLP production"},
      {"measurement": "inhibition of store-operated Ca2+ entry via CRAC/Orai channels", "setting": "[7]", "result": "partial dose-dependent inhibition of Tg-induced calcium entry; also recorded: can block calcium influx into cells via Orai; also recorded: reduce Orai-mediated calcium entry"}
    ]},
    {"smiles": "CC1=C(c2cnc(NC(=O)c3c(F)cccc3F)cn2)CN(c2ncc(C)s2)CC1", "note": "[R02959, 2,6-difluoro-N-{5-[4-methyl-1-(5-methyl-thiazol-2-yl)-1,2,5,6-tetrahydro-pyridin-3-yl]-pyrazin-2-yl}-benzamide]", "values": [
      {"measurement": "effect on cellular eVP40 expression/accumulation", "setting": "[6]", "result": "without any effect on cellular VP40 expression"},
      {"measurement": "inhibition of eVP40 VLP formation", "setting": "[6]", "result": "dose dependent inhibition of eVLP formation"},
      {"measurement": "block of eVP40 production", "setting": "[6]; concentrations <5 μM", "result": "50-100 fold"},
      {"measurement": "inhibition of store-operated Ca2+ entry via CRAC/Orai channels", "setting": "[7]", "result": "blocks Ca^2+ entry following Tg stimulation without affecting its release from the ER"},
      {"measurement": "potency as inhibitor of Orai1 relative to 2-APB or Synta66", "setting": "[7]", "result": "~10", "unit": "fold"},
      {"measurement": "inhibition of Ca2+ entry via CRAC channels", "setting": "[7]; 5 μM", "result": "inhibits Ca^2+ entry via CRAC channels"},
      {"measurement": "block of Ca2+ entry", "setting": "[7]; concentrations <5 μM", "result": "50-100 fold"}
    ]},
    {"smiles": "CC(=O)N[C@@H](CS)C(=O)O", "note": "[NAC, N-acetyl cysteine]", "values": [
      {"measurement": "block of Ebola VP40 induced intracellular calcium increase", "setting": "[8]", "result": "block the Ebola VP40 induced intracellular calcium increase"}
    ]},
    {"smiles": "NCCOB(c1ccccc1)c1ccccc1", "note": "[2-APB, 2-aminoethoxydiphenylborate]", "values": [
      {"measurement": "decrease in the number of foci formed by virions released from cells", "setting": "[9]", "result": 10, "unit": "fold"},
      {"measurement": "reduction of live Junin virus (Candid-1) foci / budding", "setting": "[9]", "result": "a similar dose-dependent decrease in JUNV budding"},
      {"measurement": "effect on cellular expression of VSV M protein", "setting": "[10]", "result": "only a slight effect on cellular M protein expression; also recorded: little to no effect on cellular expression of VSV M protein"},
      {"measurement": "inhibition of live VSV budding / titers", "setting": "[10]", "result": "inhibited live VSV viral particle budding; also recorded: dose-dependent inhibition of VSV budding"},
      {"measurement": "viability of cells under conditions mimicking infection experiments", "setting": "[11]", "result": "without effect on the viability of cells"},
      {"measurement": "sensitivity of Alix Bro1-V rescue of VLP production", "setting": "[12]", "result": "2-APB sensitive"},
      {"measurement": "effect on cellular mVP40 accumulation", "setting": "[13]", "result": "neither 2-APB nor Synta66 inhibited cellular accumulation"},
      {"measurement": "inhibition of mVP40 VLP budding", "setting": "[13]", "result": "inhibited eVP40 and mVP40 VLP budding"},
      {"measurement": "effect on cellular eVP40 expression/accumulation", "setting": "[6]", "result": "neither 2-APB nor Synta66 inhibited cellular accumulation"},
      {"measurement": "inhibition of eVP40 VLP formation", "setting": "[6]", "result": "inhibited eVP40 and mVP40 VLP budding"},
      {"measurement": "concentration that fully inhibited CRAC channels", "setting": "[7]", "result": 50, "unit": "µM"},
      {"measurement": "inhibition of store-operated Ca2+ entry via CRAC/Orai channels", "setting": "[7]", "result": "block store operated Ca^2+ influx; also recorded: blocked; also recorded: blocks Ca^2+ entry following Tg stimulation without affecting its release from the ER; also recorded: inhibition of Ca^2+ entry via CRAC channels"}
    ]},
    {"smiles": "Cc1cc(Cc2cc(C)cc(C(C)(C)C)c2O)c(O)c(Cc2cc(C)cc(C(C)(C)C)c2O)c1", "note": "[NSC 62914]", "values": [
      {"measurement": "block of Ebola VP40 induced intracellular calcium increase", "setting": "[8]", "result": "block the Ebola VP40 induced intracellular calcium increase"}
    ]},
    {"smiles": "C[C@H](CCC(=O)O)C[C@H](C)C[C@H](C)C(=O)/C=C(\\O)[C@H](C)C[C@H](C)C/C=C/[C@@H](C)[C@@H](O)[C@@H](C)[C@@H](O)C[C@@H]1CC[C@@](C)([C@H]2CC[C@@](C)([C@@H](C)O)O2)O1", "note": "[ionomycin]", "values": [
      {"measurement": "rescue of VP40-APT/PY VLP budding mediated by the Bro1-V fragment of Alix", "setting": "[12]", "result": "did not enhance rescue"}
    ]},
    {"smiles": "COc1ccc(OC)c(-c2ccc(NC(=O)c3ccncc3F)cc2)c1", "note": "[Synta66, N-(2′,5′-dimethoxy[1,1′-biphenyl]-4-yl)-3-fluoro-4-pyridinecarboxamide]", "values": [
      {"measurement": "cellular expression of JUNV glycoprotein (GP)", "setting": "[9]", "result": "No effect"},
      {"measurement": "reduction of live Junin virus (Candid-1) foci / budding", "setting": "[9]", "result": "dose-dependent reduction in the number of Junin foci; also recorded: reduces the number of JUNV foci in a dose-dependent manner"},
      {"measurement": "inhibition of live JUNV budding and spread", "setting": "[14]", "result": "steep dose-dependent inhibition; also recorded: dose-dependent reduction"},
      {"measurement": "inhibition of live MARV budding and spread", "setting": "[15]", "result": "steep dose-dependent inhibition; also recorded: dose-dependent reduction"},
      {"measurement": "effect on cellular expression of VSV M protein", "setting": "[10]", "result": "without affecting expression of VSV M"},
      {"measurement": "inhibition of live VSV budding / titers", "setting": "[10]", "result": "dose-dependent inhibition of VSV budding; also recorded: inhibited VSV titers"},
      {"measurement": "reduction in budding of live VSV", "setting": "[10]", "result": "dose-dependent reduction in budding of live Vesicular Stomatitis Virus"},
      {"measurement": "VP40-induced membrane protrusions / VLP structures at the plasma membrane", "setting": "[16]", "result": "not prevelant; also recorded: inhibits the formation of VP40-induced membrane protrusions; also recorded: inhibition of EBOV VP40 protrusions from the plasma membrane; also recorded: reduces Ebola VP40-mediated virus-like particle formation at the plasma membrane"},
      {"measurement": "VP40 expression and membrane localization", "setting": "[16]", "result": "no difference in membrane localization of eVP40; also recorded: no apparent effect on VP40 expression or membrane localization; also recorded: does not result in altered expression of Ebola VP40 (green) at the plasma membrane"},
      {"measurement": "inhibition of live LASV budding and spread", "setting": "[17]", "result": "steep dose-dependent inhibition; also recorded: dose-dependent reduction"},
      {"measurement": "effect on cellular mVP40 accumulation", "setting": "[13]", "result": "neither 2-APB nor Synta66 inhibited cellular accumulation"},
      {"measurement": "inhibition of live EBOV budding and spread", "setting": "[18]", "result": "steep dose-dependent inhibition; also recorded: dose-dependent reduction"},
      {"measurement": "effect on cellular eVP40 expression/accumulation", "setting": "[6]", "result": "neither 2-APB nor Synta66 inhibited cellular accumulation"},
      {"measurement": "inhibition of store-operated Ca2+ entry via CRAC/Orai channels", "setting": "[7]", "result": "blocks Ca^2+ entry following Tg stimulation without affecting its release from the ER; also recorded: inhibition of Ca^2+ entry via CRAC channels"}
    ]},
    {"smiles": "Nc1ccc(C(=O)Nc2cccc(-c3nc(N4CCOCC4)c4oc5ncccc5c4n3)c2)cn1", "note": "[YM201636]", "values": [
      {"measurement": "retrovirus budding", "setting": "[19]", "result": "inhibited retrovirus budding"},
      {"measurement": "inhibition of eVP40 VLP formation", "setting": "[6]", "result": "dose-dependent reduction of Ebola VP40 VLP production"}
    ]},
    {"smiles": "Cc1cc(CC(C(=O)O)c2ccc(Cl)cc2)nn1-c1ccc(Cl)cc1", "note": "(stereo not drawn) [FC-2399, 2-(4-Chloro-phenyl)-3-[1-(4-chloro-phenyl)-5-methyl-1H-pyrazol-3-yl]-propionic acid]", "values": [
      {"measurement": "inhibition of live VSV budding / titers", "setting": "[10]", "result": "significantly reduced budding of live Vesicular Stomatitis Virus in vitro in a dose-dependent manner"},
      {"measurement": "inhibition of budding of live HIV-1", "setting": "[3]", "result": "reduces budding of live HIV-1"},
      {"measurement": "reduction of live Influenza Virus A budding", "setting": "[5]", "result": "reduce live Influenza Virus A budding"},
      {"measurement": "inhibition of store-operated Ca2+ entry via CRAC/Orai channels", "setting": "[7]", "result": "reduce Orai-mediated calcium entry"}
    ]}
  ]
}
